Laboratory results: ChEMBL document CHEMBL6074620, “Discovery of a triphenylamine-based ligand that targets mitochondrial DNA G-quadruplexes and activates the cGAS-STING immunomodulatory pathway” (Eur J Med Chem, 2024)
The source made the active and inactive calls. The calls are words filed in the database; no cut-off is given here.

Legend:
4T1 = assay: Cytotoxicity against mouse 4T1 cells assessed as reduction in cell viability incubated for 24 hrs by CCK-8 assay; type: functional, cell-based; settings: 4T1, 24 h
[1] = Cytotoxicity against human MCF-10A assessed as cell growth inhibition incubated for 24 hrs by CCK-8 assay; type: toxicity, cell-based; settings: MCF-10A cells
Quadruplex DNA [2] = assay: Binding affinity to 3-terminal mt6363 DNA (unknown origin) assessed as dissociation constant by TAMRA-labeled G4 quenching assay; type: nucleic-acid assay
MDA-MB-231 = assay: Cytotoxicity against human MDA-MB-231 cells assessed as reduction in cell viability incubated for 24 hrs by CCK-8 assay; type: functional, cell-based; settings: MDA-MB-231, 24 h
Quadruplex DNA [3] = assay: Binding affinity to 5-terminal mt6363 DNA (unknown origin) assessed as dissociation constant by TAMRA-labeled G4 quenching assay; type: nucleic-acid assay
Mus musculus = assay: Immunostimulatory activity in female BALB/c mouse implanted with mouse 4T1 cells assessed as increase in CD8+ T cells in spleen 2.5 mg/kg, iv by flow cytometry; type: functional, organism-based

Compound	IC50 (4T1) [µM]	IC50 at 24 h [1] [µM]	Kd (Quadruplex DNA [2]) [µM]	IC50 (MDA-MB-231) [µM]	Kd (Quadruplex DNA [3]) [µM]	Activity (Mus musculus)
COc1ccc(N(c2ccc(/C=C/c3ccc4ccccc4[n+]3C)cc2)c2ccc(OC)cc2)cc1	9.9	39.4	3.2	5.4	9	
C[N+]1=C(/C=C/c2ccc(N(c3ccccc3)c3ccccc3)cc2)C(C)(C)c2ccccc21	4.8	5	6.3	2.6	7.3	
C[n+]1c(/C=C/c2ccc(N(c3ccccc3)c3ccccc3)cc2)ccc2ccccc21	9.6	38	5	3.4	5.5	
C[N+]1=C(/C=C/c2ccc(N(c3ccccc3)c3ccccc3)cc2)C(C)(C)c2c1ccc1ccccc21	4.3	7	1.1	2.8	1.4	
COc1cccc2c1C(=O)c1c(O)c3c(c(O)c1C2=O)C[C@@](O)(C(=O)CO)C[C@@H]3O[C@H]1C[C@H](N)[C@H](O)[C@H](C)O1						Active
COc1ccc(N(c2ccc(/C=C/C3=[N+](C)c4ccccc4C3(C)C)cc2)c2ccc(OC)cc2)cc1	3.5	8.5	2.1	4	4.3	
